Common to all, as to assay type: in vivo
Assay [1] deals with mice. The experiment in a line: Elevated Plus Maze (model for agoraphobia), mice. Conditions: 10 mg/kg p.o., 3 min test period. How it is done:
(§1) A typical model for Agoraphobia is named Elevated Plus Maze according to S. Pellow, P. Chopin, S. E. File, M. Briley, J. Neurosci. Meth., 1985,14: 145-167.
(§2) The apparatus consists of an X-shaped platform elevated from the floor, with two “open” unprotected arms and two “closed” protected arms, with animals having free access to both arms. The rat or mouse is placed in the centre of the arms, and the number of entires made and the time spent on the open arms is measured in a 3 min test period. Normal animals have very low basal levels, i.e. avoid entering the open arms and stay only a for a very brief period on open arms.
(§3) In rats, a dose of 10 mg/kg p.o. increased number of entries by 56% and time spent on open arms by 76%.

Assay [2] concerns rats. Nature of the assay: Passive Avoidance test with scopolamine (model for dementia). Particulars: 10 mg/kg p.o., compared to untreated rats. An excerpt:
(§4) Typical models for dementia, Alzheimer's disease and multi-infarct are the Passive Avoidance test in rats [S. D. Glick and B. Zimmerberg, Behav. Biol., 1972, 7: 245-254; D. K. Rush, Behav. Neural Biol., 1988, 50: 255-274] and the testing of memory functions in the Morris Water Maze in aged rats [R. Morris, J. Neurosci. Methods, 1984, 11: 47-60, F. H. Gage et al. Neurobiol. Aging. 1984, 5: 43-48].
For the Passive Avoidance test, the apparatus is a runway separated from a dark compartment by a small door. The amnestic drug scopolamine is administered before the animal is submitted to an aquisition trial: the rat is placed on the entry of the runway opposite to the dark compartment, the latency to enter the dark compartment is recorded, and once the rat has entered the dark compartment, the door is closed and a foot schock is administered via the gridfloor. A retention trial is performed 48 h later identical to the aquisition trial (without scopolamine) and the latency to enter the dark compartment recorded again. […]

For assay [3], the system named is mice. The experiment in a line: Marble Burying Test (model for OCSD including OCD). Conditions: 3 mg/kg, subcutaneous application. The protocol: A typical model for OCSD including OCD is the Marble Burying Test according to Y. Ichimaru, T. Egawa, A. Sawa, Jpn. J. Pharmacol. 1995, 68: 65-70.
The apparatus consists of an open cubic box with 25 clean glass marbles evenly spaced on sawdust. Individual mice are placed in the test box, and the number of glass marbles left uncovered after 20 minutes are counted. 1-[4-(5-cyanoindol-3-yl)butyl]-4-(2-carbamoyl-benzofuran-5-yl)-piperazine or one of its physiologically acceptable salts, in particular 1-[4-(5-cyanoindol-3-yl)butyl]-4-(2-carbamoyl-benzofuran-5-yl)-piperazine hydrochloride, following subcutaneous application inhibits mable burying in mice dose-dependently. For example, a dose of 3 mg/kg of 1-[4-(5-cyanoindol-3-yl)butyl]-4-(2-carbamoyl-benzofuran-5-yl)-piperazine hydrochloride nearly completely (92%) inhibits marble burying; equieffective doses of conventional serotonin reuptake inhibitors are e.g. 20 mg/kg for fluvoxamine or 17 mg/kg for fluoxetine and an equieffective dose of the 5-HT1A agonist ipsapirone is 10 mg/kg.

Assay [4] relates to rats. Nature of the assay: Elevated Plus Maze (model for agoraphobia), rats. Conditions: 10 mg/kg p.o., 3 min test period. How it is done: as §1, §2, §3
The nature of assay [5]: Development of body weight, dogs. The source says:
Thus, differential effects on body weight indicating therapeutic efficacy in either obesity or anorexia depending on the dose range used are evident.

Assay [6] concerns aged rats. Nature of the assay: Morris Water Maze in aged rats. Particulars: old rats, tested at day 7, untreated old rats 95 sec, vehicle treated young rats 76 sec.
From the text: as §4
The Morris Water Maze consists of a circular water tank (150 cm in diameter) filled with water with an escape platform (15 cm in diameter) 18 cm from the periphery beneath the surface of the water. The water is made opaque rendering the platform invisible. Rats placed in the tank swim around and find the hidden platform accidently after a certain time (latency), and the latency to find the platform is taken as measure. When given further training session to find the platform, rats show reduced latencies from day to day, i.e. remember (learn) the location of the platform. But compared to young rats, aged rats perform less well in learning over days reflecting impaired learning capacity. Drugs effective for dementia and particularly Alzheimers disease improve the earning capacity of aged rats.
1-[4-(5-cyanoindol-3-yl)butyl]-4-(2-carbamoyl-benzofuran-5-yl)-piperazine hydrochloride is administered to old rats at oral doses of 1 and 3 mg/kg every day. […]

In assay [7] the test system is rats. The experiment in a line: Animal models of sexual function (behavioural measures for sexual activity). Particulars: penile erection, ejaculatory behaviour, mating frequency in male rats, receptive behaviours in female rats. An excerpt: In animal models, various behavioural measures for sexual function can be used in animal models depending on the targeted dysfunction in humans, e.g. reduced libido, anorgasmia, or ejaculation disorders. Measures for sexual activity in animals include fascilitation or prolongation of penile erection, ejaculatory behaviour or frequency of mating behaviour in male rats, or the percentage of receptive behaviours in female rats [e.g.: S. Ahlenius and K. Larsson, Neurochem. Res., 1997, 22: 1065-1070; S. Ahlenius and K. Larsson, Psychopharmacology, 1998, 137: 374-382; J. Vega-Matuszcyk et al., Pharmacol. Biochem. Behav., 1998, 60: 527-532; J. M. Cantor et al., Psychopharmacology, 1999; 144: 355-362]. 1-[4-(5-cyancindol-3-yl)butyl]-4-(2-carbamoyl-benzofuran-5-yl)-piperazine or one of its physiologically acceptable salts, in particular 1-[4-(5-cyanoindol-3-yl)butyl]-4-(2-carbamoyl-benzofuran-5-yl)-piperazine hydrochloride, were effective on various measures mentioned before.

SMILES strings stand for the structures.

As to `Cl.N#Cc1ccc2[nH]cc(CCCCN3CCN(c4ccc5oc(C(N)=O)cc5c4)CC3)c2c1` [1-[4-(5-cyanoindol-3-yl)butyl]-4-(2-carbamoyl-benzofuran-5-yl)-piperazine hydrochloride], the “increase of number of entries on open arms” value was determined as 157% in assay [1] and 56% in assay [4]. The entries for the “increase of time spent on open arms” value in assay [1] and in assay [4] were 105% and 76%, respectively. For the same compound, in assay [2], the “increase of latency to enter the dark compartment in the first retention trial” value was 78%. The “inhibition of marble burying” value in assay [3] is on record as 92%. In addition, the “development of body weight” value in assay [5] is “reduced development of body weight”. Moreover, the figures for the “latency to find the platform in the first attempt” value in assay [6] (oral 1 mg/kg every day) and in assay [6] (oral 3 mg/kg every day) were 77 s and 73 s, respectively. Moreover, the “effect on measures for sexual activity” value in assay [7] is given as “effective”.
